Values quoted from earlier work, collected in patent publication US6436435B1, “Liposome formulation of 5 β steroids” (Super Gen, Inc., priority 1995, dated 2002).

What was measured:
[1] = system: genetically obese mice; details: variety of routes
[2] = system: genetically obese and diabetic mice; details: maximal benefit when ingested
[3] = system: severely diabetic mammals; details: oral administration
[4] = system: individuals suffering from Prader-Willi Syndrome; details: in vivo
[5] = system: C57BL/KsJ-db/db diabetic mice; details: for effectiveness in preventing development of diabetes relative to DHEA: C57BL/KsJ-db/db diabetic mice; for blood sugar / plasma insulin concentrations: mouse, in vivo
[6] = system: diabetic genetically obese mice; details: supplied in the diet
[7] = system: obese mice; details: injected im, ip or iv / parenteral
[8] = system: congenitally obese mice carrying the ob ob mutation

Molecule: C[C@]12CC[C@H](O)CC1=CC[C@@H]1[C@@H]2CC[C@]2(C)C(=O)CC[C@@H]12 [DHEA, 3-β-hydroxy-androst-5-en-17-one]
- rate of weight gain [1]: decreased the rate of weight gain
- development of diabetes [2]: markedly reduced the development of diabetes
- glucose tolerance [3]: improved glucose tolerance
- hyperglycemia [3]: restored hyperglycemia to normal levels

Molecule: C[C@]12CCC(=O)C[C@H]1CC[C@@H]1[C@@H]2CC[C@]2(C)C(=O)CC[C@@H]12 [ED, 5β-androstane-3,17-dione]
- body weight in Prader-Willi Syndrome [4]: either weight loss or a decrease in the rate of weight gain
- subjective or objective side effects (oral ED four grams per day): no significant subjective or objective side effects
- weight loss per week per 100 kilograms of body fat (oral ED four grams per day): 0.5±0.91 kilograms per week per 100 kilograms of body fat
- mean weight loss during ED administration (oral ED four grams per day, 10 week period, 14 obese subjects): 2.8±5.5 kilograms
- mean fat loss, of the initial body fat content (over the 10 week period of ED administration): about 5%

Molecule: C[C@]12CC[C@@H](O)C[C@@H]1CC[C@@H]1[C@@H]2CC[C@]2(C)C(=O)CC[C@@H]12 [androsterone]
- effectiveness in preventing development of diabetes relative to DHEA [5]: not

Molecule: C[C@]12CC[C@H](O)C[C@@H]1CC[C@@H]1[C@@H]2CC[C@]2(C)C(=O)CC[C@@H]12 [epiandrosterone]
- effectiveness in preventing development of diabetes relative to DHEA [5]: not

Molecule: C[C@]12CC[C@@H](O)C[C@H]1CC[C@@H]1[C@@H]2CC[C@]2(C)C(=O)CC[C@@H]12 [etiocholanolone]
- body weight in Prader-Willi Syndrome [4]: either weight loss or a decrease in the rate of weight gain

Molecule: C[C@]12CC[C@@H](O)C[C@H]1CC[C@@H]1[C@@H]2CC[C@]2(C)C(=O)CC[C@@H]12 [α ET, 3α-hydroxy-5β-androstane-17-one]
- effectiveness in preventing development of diabetes relative to DHEA [5]: four times more effective than DHEA
- blood sugar [5]: reduce blood sugar
- plasma insulin concentrations [5]: increased plasma insulin concentrations
- anti-obesity properties [6]: can prevent and arrest the development of obesity
- anti-obesity effect, injected [7]: does not exert an anti-obesity effect

Molecule: C[C@]12CC[C@H](O)C[C@H]1CC[C@@H]1[C@@H]2CC[C@]2(C)C(=O)CC[C@@H]12 [β ET, 3β-hydroxy-5β-androstane-17-one]
- effectiveness in preventing development of diabetes relative to DHEA [5]: four times more effective than DHEA
- blood sugar [5]: reduce blood sugar
- plasma insulin concentrations [5]: increased plasma insulin concentrations
- anti-obesity properties [6]: can prevent and arrest the development of obesity
- anti-obesity effect, injected [7]: does not exert an anti-obesity effect

B1: OB protein: protein product of the recombinant gene ob in mice and its human homologue (protein, UniProt P41160 22-167, looked up)
Leptin: VPIQKVQDDTKTLIKTIVTRINDISHTQSVSAKQRVTGLDFIPGLHPILSLSKMDQTLAVYQQVLTSLPSQNVLQIANDLENLRDLLHLLAFSKSCSLPQTSGLQKPESLDGVLEASLYSTEVVALSRLQGSLQDILQQLDVSPEC
- serum insulin and glucose levels ([8]; highest dose tested, 10 mg/kg per day): normalized to the level typically seen in the non-mutant mice
- body weight effect ([8]; parenteral administration): weight reducing effects
